This passage reports broad-spectrum antimicrobial activity, MIC and MIC after proteinase K treatment results from patent US20260217761A1, “ANTIMICROBIAL PEPTIDE RICH IN TRYPTOPHAN AND HAVING SELF-ASSEMBLY PROPERTIES, AND USE THEREOF” (NANOQURE BIOTECH (SHENZHEN) CO., LTD., priority 2022, published 2026).

Values after ≈ are worked out from the molar mass of the structure shown. Non-standard residues stand in square brackets, D forms with d. Residues, ends and D or L forms follow the SMILES beside them.

In one assay the test system is various bacteria. Put plainly: MIC against various bacteria (broad-spectrum antimicrobial activity). Format: cell-based. As for the experimental part: • A. The antimicrobial peptide was prepared into a certain stock solution for use. 0.01% acetic acid (containing 0.2% BSA) was used as the diluent, and a series of gradient antimicrobial peptide solutions were prepared sequentially by a two-fold dilution method. • B. 100 μL of the above-mentioned antimicrobial peptide stock solution was taken and placed in a 96-well cell culture plate. Then, an equal volume of the test bacterial solution (approximately 10^5 cells/mL) was added to each well. A positive control (containing the bacterial solution but no antimicrobial peptide) and a negative control (containing neither bacterial solution nor the peptide) were included, respectively. The test bacterial species include Pseudomonas aeruginosa (Pseudomonas aeruginosa PL1, Pseudomonas aeruginosa SP1), Staphylococcus aureus (Staphylococcus aureus 544, Staphylococcus aureus 103), Escherichia coli (Escherichia coli 729, Escherichia coli 112), Klebsiella Pneumoniae (Klebsiella Pneumoniae 106, Klebsiella Pneumoniae 727), Streptococcus pneumonia 383, Acinetobacter baumannii (Acinetobacter baumannii 946, Acinetobacter baumannii 780) (FIG. 1), or Pseudomonas aeruginosa (Pseudomonas aeruginosa PAO1), Staphylococcus aureus (Staphylococcus aureus SP1), and a mixed solution of the above two bacteria (FIG. 2). • C. The culture plate was placed in a constant temperature incubator at 37° C. for 20 h. The minimum inhibitory concentration is determined as the condition where no turbidity is observed at the bottom of the well with naked eyes.
• A. The polypeptide Z4 composed entirely of dextrorotatory amino acids is called the dextrorotatory isomer of polypeptide Z4. The polypeptide Z4-D was prepared into a certain stock solution for use. […] The minimum inhibitory concentration is determined as the condition where no turbidity is observed at the bottom of the well with naked eyes.

The test system of the next assay is P. aeruginosa PL1. Format: cell-based, Pseudomonas aeruginosa. As for the experimental part: (§1) • A. The polypeptide Z4 composed entirely of dextrorotatory amino acids is called the dextrorotatory isomer of polypeptide Z4. The polypeptide Z4-D was prepared into a certain stock solution for use. 0.01% acetic acid (containing 0.2% BSA) was used as the diluent, and a series of gradient antimicrobial peptide solutions were prepared in sequence by a two-fold dilution method. • B. 100 μL of the above-mentioned antimicrobial peptide stock solution was taken and placed in a 96-well cell culture plate. Then, an equal volume of the test bacterial solution (approximately […]) was added to each well. A positive control (containing the bacterial solution but no antimicrobial peptide) and a negative control (containing neither the bacterial solution nor the peptide) were included, respectively. The test bacterial species include Pseudomonas aeruginosa (Pseudomonas aeruginosa PL1, Pseudomonas aeruginosa SP1), Staphylococcus aureus (Staphylococcus aureus 544, Staphylococcus aureus 103), Escherichia coli (Escherichia coli 729, Escherichia coli 112), Klebsiella Pneumoniae (Klebsiella Pneumoniae 106, Klebsiella Pneumoniae 727), Streptococcus pneumonia 383, and Acinetobacter baumannii (Acinetobacter baumannii 946, Acinetobacter baumannii 780). • C. […] The minimum inhibitory concentration is determined as the condition where no turbidity is observed at the bottom of the well with naked eyes.

For a further assay, the system named is P. aeruginosa SP1. Format: cell-based, Pseudomonas aeruginosa. As for the experimental part:
as §1

Another assay has as its system S. aureus 103. Format: cell-based, Staphylococcus aureus. As for the experimental part:
as §1

A further assay relates to S. aureus 544. Format: cell-based, Staphylococcus aureus. As for the experimental part: as §1
Another assay relates to E. coli 112. Format: cell-based, Escherichia coli. As for the experimental part: as §1
In another assay the test system is E. coli 729. Format: cell-based, Escherichia coli. As for the experimental part:
as §1

The test system of another assay is K. pneumoniae 106. Format: cell-based, Klebsiella Pneumoniae. As for the experimental part: as §1
In another assay the test system is K. pneumoniae 727. Format: cell-based, Klebsiella Pneumoniae. As for the experimental part: as §1
The next assay concerns S. pneumoniae 383. Format: cell-based, Streptococcus pneumonia. As for the experimental part:
as §1

The next assay concerns A. baumannii 780. Format: cell-based, Acinetobacter baumannii. As for the experimental part:
as §1

The test system of the next assay is A. baumannii 946. Format: cell-based, Acinetobacter baumannii. As for the experimental part:
as §1

The test system of assay [1] is mixed bacterial solution of P. aeruginosa PAO1 and S. aureus SP1. Format: cell-based. The note with it: within 0-120 minutes of proteinase K treatment, remained unchanged. As for the experimental part:
After ultrasonic treatment of polypeptide Z4 and polypeptide Z4-D for 30 min, they were placed at room temperature for 2 h to promote their self-assembly. Subsequently, proteinase K with a final concentration of 0.2 g/mL was mixed with the polypeptide solution (final concentration of 640 μM) and incubated at 37° C. for 0, 30, 60, 90 or 120 min respectively. Then, according to the scheme described in Example 2, the MICs of the polypeptides against the mixed bacterial solution of P. aeruginosa PAO1 and S. aureus SP1 under different treatment conditions were determined.

Broadly, the MIC is the lowest concentration that inhibits growth of the organism. Read a high MIC as a need for much substance. Consider `NCCCC[C@@H](NC(=O)[C@@H](Cc1c[nH]c2ccccc12)NC(=O)[C@H](N)Cc1c[nH]c2ccccc12)C(=O)N[C@H](CCCCN)C(=O)N[C@H](Cc1c[nH]c2ccccc12)C(=O)N[C@H](CCCCN)C(=O)N[C@H](CCCCN)C(=O)N[C@H](Cc1c[nH]c2ccccc12)C(=O)N[C@H](Cc1c[nH]c2ccccc12)C(N)=O` [Z4-D] (H-[dW][dW][dK][dK][dW][dK][dK][dW][dW]-NH2; N-terminus assumed), for which the broad-spectrum antimicrobial activity entry with various bacteria was “good broad-spectrum antimicrobial activity”. Also, the MIC came to 16 µM (≈ 23.4 µg/mL) against P. aeruginosa PL1; 4 µM (≈ 5.84 µg/mL) against P. aeruginosa SP1; 4 µM (≈ 5.84 µg/mL) against S. aureus 103; 4 µM (≈ 5.84 µg/mL) with S. aureus 544; 4 µM (≈ 5.84 µg/mL) in the assay on E. coli 112; 4 µM (≈ 5.84 µg/mL) against E. coli 729. The MIC is 128 µM (≈ 187 µg/mL) in the assay on K. pneumoniae 106; 32 µM (≈ 46.7 µg/mL) against K. pneumoniae 727; 4 µM (≈ 5.84 µg/mL) in the assay with S. pneumoniae 383; 16 µM (≈ 23.4 µg/mL) against A. baumannii 780; 4 µM (≈ 5.84 µg/mL) in the assay with A. baumannii 946. In addition, the MIC after proteinase K treatment in [1] was found to be 4 µM (≈ 5.84 µg/mL).
